One experiment addresses Prothrombin (Homo sapiens, UniProt P00734). Briefly: Inhibition of serine protease thrombin enzyme.
For experiment [1], the target named is T1, Coagulation factor X (Oryctolagus cuniculus, UniProt O19045).
T1 sequence (O19045 whole entry): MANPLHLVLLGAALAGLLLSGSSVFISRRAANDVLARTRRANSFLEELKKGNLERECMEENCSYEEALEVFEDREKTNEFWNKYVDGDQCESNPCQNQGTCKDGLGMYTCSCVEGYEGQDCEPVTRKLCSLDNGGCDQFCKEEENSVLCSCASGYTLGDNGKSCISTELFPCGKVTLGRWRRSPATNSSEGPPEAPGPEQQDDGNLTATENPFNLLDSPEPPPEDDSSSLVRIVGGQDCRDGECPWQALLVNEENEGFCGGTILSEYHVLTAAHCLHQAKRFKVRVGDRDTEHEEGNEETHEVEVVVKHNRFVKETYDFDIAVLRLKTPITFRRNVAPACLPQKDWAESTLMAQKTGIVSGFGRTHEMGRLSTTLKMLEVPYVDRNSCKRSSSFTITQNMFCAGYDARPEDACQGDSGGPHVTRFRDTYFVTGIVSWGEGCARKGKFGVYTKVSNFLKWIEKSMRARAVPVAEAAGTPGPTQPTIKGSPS
In words: Inhibition of serine protease factor Xa enzyme.

In another experiment the target is Trypsin (Homo sapiens, UniProt P07477+P07478+P35030). Briefly: Inhibition of serine protease trypsin enzyme. In kind it is protein assay, Oryctolagus cuniculus.
A further experiment addresses T2, Coagulation factor VII (Homo sapiens, UniProt P08709).
T2 sequence (P08709 whole entry): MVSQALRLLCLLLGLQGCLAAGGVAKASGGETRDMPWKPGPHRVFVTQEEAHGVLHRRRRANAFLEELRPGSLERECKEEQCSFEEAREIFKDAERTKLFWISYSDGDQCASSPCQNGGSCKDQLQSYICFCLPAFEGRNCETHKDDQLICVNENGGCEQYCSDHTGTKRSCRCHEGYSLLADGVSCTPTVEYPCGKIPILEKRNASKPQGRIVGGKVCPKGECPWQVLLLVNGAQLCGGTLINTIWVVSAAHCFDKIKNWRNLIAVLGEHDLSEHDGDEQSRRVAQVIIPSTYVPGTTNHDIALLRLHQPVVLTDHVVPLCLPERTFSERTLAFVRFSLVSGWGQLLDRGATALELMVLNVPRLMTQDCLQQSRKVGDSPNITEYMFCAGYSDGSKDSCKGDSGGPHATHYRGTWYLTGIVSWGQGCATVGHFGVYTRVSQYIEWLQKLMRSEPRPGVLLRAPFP
In words: Compound was tested for the inhibition of serine protease factor VIIa enzyme. Further details: species or system Oryctolagus cuniculus.

The next experiment has as its target Plasminogen (Homo sapiens, UniProt P00747). Briefly: Compound was tested for the inhibition of serine protease plasmin enzyme. Further details: species or system Oryctolagus cuniculus.
Experiment [2] in a line: Compound was tested for the inhibition of serine protease complement factor I enzyme. The arrangement: species or system Oryctolagus cuniculus.
The target in experiment [3] is Tissue-type plasminogen activator (Homo sapiens, UniProt P00750). Briefly: Compound was tested for the inhibition of serine protease tissue plasminogen activator enzyme. The arrangement: species or system Oryctolagus cuniculus.
Experiment [4] concerns the target T1, Coagulation factor X. Briefly: Compound was tested for the inhibition of serine protease factor Xa enzyme.

Molecules are shown by their SMILES.

Sequence of Tissue-type plasminogen activator (P00750 whole entry): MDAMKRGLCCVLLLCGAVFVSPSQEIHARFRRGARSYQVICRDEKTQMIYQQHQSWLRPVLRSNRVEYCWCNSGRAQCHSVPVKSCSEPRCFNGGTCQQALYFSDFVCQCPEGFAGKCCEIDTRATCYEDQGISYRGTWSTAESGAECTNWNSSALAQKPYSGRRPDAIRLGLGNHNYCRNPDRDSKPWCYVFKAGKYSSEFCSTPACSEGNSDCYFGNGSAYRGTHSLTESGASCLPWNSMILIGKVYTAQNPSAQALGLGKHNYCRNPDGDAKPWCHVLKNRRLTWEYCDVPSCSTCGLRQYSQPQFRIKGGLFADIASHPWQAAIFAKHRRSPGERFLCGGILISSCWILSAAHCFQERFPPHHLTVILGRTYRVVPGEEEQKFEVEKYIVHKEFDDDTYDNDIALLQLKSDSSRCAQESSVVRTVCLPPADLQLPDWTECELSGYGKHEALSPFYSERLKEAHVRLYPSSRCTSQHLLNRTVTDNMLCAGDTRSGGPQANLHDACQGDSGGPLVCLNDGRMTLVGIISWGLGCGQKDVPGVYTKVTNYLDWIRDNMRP
Sequence of Plasminogen (P00747 97-580 limits assumed): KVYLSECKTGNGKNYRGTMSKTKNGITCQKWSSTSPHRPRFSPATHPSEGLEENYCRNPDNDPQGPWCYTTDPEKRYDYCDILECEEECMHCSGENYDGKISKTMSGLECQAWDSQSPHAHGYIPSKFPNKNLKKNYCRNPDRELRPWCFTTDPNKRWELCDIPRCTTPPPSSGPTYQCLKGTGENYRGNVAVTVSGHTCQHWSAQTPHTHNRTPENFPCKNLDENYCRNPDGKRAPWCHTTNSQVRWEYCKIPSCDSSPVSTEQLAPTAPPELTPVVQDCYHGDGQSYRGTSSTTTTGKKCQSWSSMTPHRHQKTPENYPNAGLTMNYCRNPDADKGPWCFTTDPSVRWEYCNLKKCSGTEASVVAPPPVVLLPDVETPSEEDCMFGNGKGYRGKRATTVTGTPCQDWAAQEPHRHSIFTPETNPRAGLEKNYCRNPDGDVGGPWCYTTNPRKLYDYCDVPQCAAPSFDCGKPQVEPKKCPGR
Sequence of Plasminogen (P00747 581-810 limits assumed): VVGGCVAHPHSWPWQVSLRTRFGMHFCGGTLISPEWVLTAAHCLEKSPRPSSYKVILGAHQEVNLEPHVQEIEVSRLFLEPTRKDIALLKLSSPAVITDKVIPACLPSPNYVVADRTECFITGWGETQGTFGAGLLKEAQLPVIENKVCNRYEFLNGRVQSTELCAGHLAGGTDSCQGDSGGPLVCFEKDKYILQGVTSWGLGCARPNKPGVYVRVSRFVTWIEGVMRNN

For the compound `COC(=O)CN(CCc1ccc(-c2ccccc2S(N)(=O)=O)cc1)c1cccc(C(=N)N)c1.O=C(O)C(F)(F)F`, the Ki (in general, a dissociation constant, usually derived from enzyme kinetics or from competition with a known ligand) stood at 400 nM at Prothrombin, 10 nM on Coagulation factor X [1] and 56 nM on Trypsin.
In the same order, the values of `N=C(N)c1cccc(N(CCO)CCCc2ccc(-c3ccccc3S(N)(=O)=O)cc2)c1.O=C(O)C(F)(F)F` are 1800 nM, 17 nM and 710 nM.
As for `CC(=O)CN(CCCc1ccc(-c2ccccc2S(N)(=O)=O)cc1)c1cccc(C(=N)N)c1.O=C(O)C(F)(F)F`, the Ki on Prothrombin was determined as 900 nM; on Coagulation factor X [1], 16 nM; at Trypsin, 360 nM.
As to `COC(=O)CN(CCCOc1ccc(-c2ccccc2S(N)(=O)=O)cc1)c1cccc(C(=N)N)c1.O=C(O)C(F)(F)F`, the figures for the Ki at Prothrombin, on Coagulation factor X [1] and at Trypsin were 600 nM, 6.7 nM and 77 nM, respectively.
For `N=C(N)c1cccc(N(CCCc2ccc(-c3ccccc3S(N)(=O)=O)cc2)CC(=O)O)c1.O=C(O)C(F)(F)F`, the Ki was 1400 nM at Prothrombin, 12 nM at Coagulation factor X [1] and 470 nM at Trypsin.
For `COC(=O)CN(CCCc1ccc(-c2ccccc2S(N)(=O)=O)cc1)c1cccc(C(=N)N)c1.O=C(O)C(F)(F)F`, the Ki was 4200 nM at Coagulation factor VII; 300 nM at Plasminogen; 33000 nM in experiment [3]; 200 nM at Prothrombin; 1.3 nM at Coagulation factor X [1]; 39 nM at Trypsin. In experiment [2], half-maximal inhibition (IC50) required 10000 nM.
Take `COC(=O)CC1(C(=O)Nc2ccc(-c3ccccc3S(N)(=O)=O)cc2)CC(c2cccc(C(=N)N)c2)=NO1` (stereo not given): the affinity on Coagulation factor X [1], expressed as Ki, was 6.3 nM.
As for `CC(C)OC(=O)CN(CCCc1ccc(-c2ccccc2S(N)(=O)=O)cc1)c1cccc(C(=N)N)c1.O=C(O)C(F)(F)F`, the results for the Ki on Prothrombin, on Coagulation factor X [1] and on Trypsin were 500 nM, 7.5 nM and 74 nM, respectively.
`COC(=O)CC(CCc1ccc(C(=N)N)cc1)c1cccc(C(=N)N)c1` (stereo not given) had a Ki on Coagulation factor X [1] of 34 nM.
On to `COC(=O)CN(CCOc1ccc(-c2ccccc2S(N)(=O)=O)cc1)c1cccc(C(=N)N)c1.O=C(O)C(F)(F)F`, for which the Ki stood at 200 nM on Prothrombin, 0.53 nM at Coagulation factor X [1] and 19 nM at Trypsin.
Take `N=C(N)c1cccc(N(CCCc2ccc(-c3ccccc3S(N)(=O)=O)cc2)CCOc2ccccc2)c1`: the Ki worked out at 300 nM at Prothrombin and 16 nM at Coagulation factor X [1].
Regarding `CC(C)OC(=O)CN(CCOc1ccc(-c2ccccc2S(N)(=O)=O)cc1)c1cccc(C(=N)N)c1.O=C(O)C(F)(F)F`, the Ki at Prothrombin is 300 nM; at Coagulation factor X [1], 2.1 nM; at Trypsin, 52 nM.
Regarding `N=C(N)c1cccc(NS(=O)(=O)CCc2ccc(-c3ccccc3S(N)(=O)=O)cc2)c1.O=C(O)C(F)(F)F`, the figures for the Ki on Prothrombin, on Coagulation factor X [1] and on Trypsin were 17000 nM, 51 nM and 1400 nM, respectively.
In the same order, the values of `COCCN(CCCc1ccc(-c2ccccc2S(N)(=O)=O)cc1)c1cccc(C(=N)N)c1.O=C(O)C(F)(F)F` are 900 nM, 11 nM and 330 nM.
Take `N=C(N)c1cccc(NCCCc2ccc(-c3ccccc3S(N)(=O)=O)cc2)c1.O=C(O)C(F)(F)F`: the Ki on Prothrombin worked out at 6100 nM; at Coagulation factor X [1], 83 nM; on Trypsin, 850 nM.
Turning to `COC(=O)CC1(C(=O)Nc2ccc(C(=N)N)cc2)CC(c2cccc(C(=N)N)c2)=NO1` (stereo not given), the Ki on Coagulation factor X [1] was 94 nM.
Regarding `CC(C)OC(=O)CN(c1cccc(C(=N)N)c1)S(=O)(=O)CCc1ccc(-c2ccccc2S(N)(=O)=O)cc1.O=C(O)C(F)(F)F`, the Ki was found to be 15000 nM on Prothrombin, 37 nM at Coagulation factor X [1] and 220 nM on Trypsin.
Take `N=C(N)c1cccc(N(CCCc2ccc(-c3ccccc3S(N)(=O)=O)cc2)CC(N)=O)c1.O=C(O)C(F)(F)F`: the Ki is 3500 nM at Prothrombin, 19 nM at Coagulation factor X [1] and 820 nM at Trypsin.
`COC(=O)CN(c1cccc(C(=N)N)c1)S(=O)(=O)CCc1ccc(-c2ccccc2S(N)(=O)=O)cc1.O=C(O)C(F)(F)F`: the Ki on Prothrombin stood at 9000 nM; at Coagulation factor X [1], 21 nM; on Trypsin it was 180 nM.
On to `CC(=N)N1CC[C@H](Oc2ccc([C@H](Cc3ccc4ccc(C(=N)N)cc4c3)C(=O)O)cc2)C1` [DX-9065A], for which the IC50 (in general, the concentration that gives 50% inhibition) against Coagulation factor X [4] was determined as 41 nM.

These data come from ChEMBL document CHEMBL1130662, “Preparation of meta-amidino-N,N-disubstituted anilines as potent inhibitors of coagulation factor Xa” (Bioorg Med Chem Lett, 1998).
